Results from patent publication US9783536B2, “Nitrogen-containing heterocyclic compound or salt thereof” (FUJIFILM Corporation, priority 2013, dated 2017).
Where a name gives a salt, the structure may show the parent alone.

Experiments:
[1] = target: T1, GST fusion human ERK2 protein (Homo sapiens, UniProt P28482); assay: ERK2 enzyme assay (2); type: biochemical; details: ERK2 enzyme assay (2); read-out: ERK2 enzyme inhibitory activity (2)
T1 construct: purchased Carna Biosciences, Inc; host or cells: E. coli expression system
T1 sequence (P28482 whole entry, the tested form may be a part): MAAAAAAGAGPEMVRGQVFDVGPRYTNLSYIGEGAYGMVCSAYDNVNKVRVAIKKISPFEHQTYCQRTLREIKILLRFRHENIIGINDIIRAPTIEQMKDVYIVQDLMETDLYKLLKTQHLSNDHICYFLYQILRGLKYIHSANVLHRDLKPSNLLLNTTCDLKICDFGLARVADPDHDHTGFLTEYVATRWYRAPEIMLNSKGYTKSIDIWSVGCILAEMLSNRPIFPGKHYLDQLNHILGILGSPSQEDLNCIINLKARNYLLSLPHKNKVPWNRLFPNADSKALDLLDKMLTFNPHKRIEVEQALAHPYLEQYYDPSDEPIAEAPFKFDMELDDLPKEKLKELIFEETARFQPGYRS
Description: In an ERK2 enzyme assay, GLUTATHIONE S-TRANSFERASE (GST) FUSION HUMAN ERK2 PROTEIN (manufactured by Carna Biosciences, Inc.), which was produced by using an E. coli expression system, was used.
12 μL of a reaction liquid (1.25 nmol/L ERK2, 100 mmol/L Hepes, 10 mmol/L MgCl2, 1.5 mmol/L DTT, 0.003% Brij35, pH 7.5) including ERK2 protein and a test compound having a predetermined concentration was allowed to stand at room temperature for 15 minutes. Then, 3 μL of a mixture liquid of FL-PEPTIDE8 (5-FAM-IPTSPITTTYFFFKKK-COOH) (manufactured by Caliper Life Sciences), which is substrate peptide, and ATP (manufactured by Sigma-Aldrich Co. LLC.) was added thereto such that the final concentrations thereof became 4.25 μmol/L and 1 mmol/L, respectively, and an enzyme reaction was performed by allowing to stand at 25° C. for 120 minutes.
After the reaction, the enzyme reaction was stopped by adding 30 μL of a reaction stopper liquid (100 mmol/L HEPES, 11.2 mmol/L EDTA, 5.6% Brij35, pH 7.5) including a 0.5% COATING REAGENT 8 (trade name, manufactured by Perkin Elmer Inc.) thereto. Then, phosphorylated peptide and non-phosphorylated peptide were separated using LABCHIP EZ READER (trade name, manufactured by Caliper Life Sciences), and the porportion of the phosphorylated peptide was quantified.
(§1) The inhibitory activities of the compounds were evaluated using IC50 (50% inhibitory concentration). The IC50 was calculated using XLFIT (trade name, manufactured by ID Business Solutions).

human PI3Kα protein = target: T2, human PI3Kα protein (Homo sapiens, UniProt P42336); assay: PI3Kα enzyme assay (ADP-Glo); type: biochemical; details: read-out: PI3Kα enzyme inhibitory activity
T2 construct: purchased Carna Biosciences, Inc; host or cells: baculovirus expression system
T2 sequence (P42336 whole entry): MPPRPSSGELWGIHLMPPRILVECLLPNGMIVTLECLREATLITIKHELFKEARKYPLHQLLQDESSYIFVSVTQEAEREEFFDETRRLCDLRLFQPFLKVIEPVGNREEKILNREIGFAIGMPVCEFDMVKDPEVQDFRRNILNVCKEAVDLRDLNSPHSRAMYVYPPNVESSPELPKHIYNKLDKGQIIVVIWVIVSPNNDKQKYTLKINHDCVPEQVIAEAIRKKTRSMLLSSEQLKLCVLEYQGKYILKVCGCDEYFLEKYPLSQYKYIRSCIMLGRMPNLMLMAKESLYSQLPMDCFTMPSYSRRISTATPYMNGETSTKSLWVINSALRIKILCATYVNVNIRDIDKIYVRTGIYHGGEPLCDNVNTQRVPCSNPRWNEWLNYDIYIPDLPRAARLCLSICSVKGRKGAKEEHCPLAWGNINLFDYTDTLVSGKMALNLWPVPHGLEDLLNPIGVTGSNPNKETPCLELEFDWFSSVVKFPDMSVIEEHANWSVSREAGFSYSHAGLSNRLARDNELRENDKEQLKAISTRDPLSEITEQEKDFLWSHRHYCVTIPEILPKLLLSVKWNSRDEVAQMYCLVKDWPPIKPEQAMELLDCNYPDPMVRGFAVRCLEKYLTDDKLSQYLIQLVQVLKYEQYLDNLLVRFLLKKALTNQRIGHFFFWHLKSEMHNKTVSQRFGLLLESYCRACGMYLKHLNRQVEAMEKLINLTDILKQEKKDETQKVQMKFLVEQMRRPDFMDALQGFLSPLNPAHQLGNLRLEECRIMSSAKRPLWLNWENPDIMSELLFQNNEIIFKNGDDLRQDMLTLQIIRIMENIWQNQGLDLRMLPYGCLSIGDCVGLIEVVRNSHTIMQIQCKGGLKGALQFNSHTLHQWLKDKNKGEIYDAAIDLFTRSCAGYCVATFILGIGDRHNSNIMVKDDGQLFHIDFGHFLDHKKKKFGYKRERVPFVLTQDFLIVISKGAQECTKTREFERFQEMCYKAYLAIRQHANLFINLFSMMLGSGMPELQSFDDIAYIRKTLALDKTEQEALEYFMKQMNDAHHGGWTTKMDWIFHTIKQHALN
T2 sequence (P27986 whole entry partner): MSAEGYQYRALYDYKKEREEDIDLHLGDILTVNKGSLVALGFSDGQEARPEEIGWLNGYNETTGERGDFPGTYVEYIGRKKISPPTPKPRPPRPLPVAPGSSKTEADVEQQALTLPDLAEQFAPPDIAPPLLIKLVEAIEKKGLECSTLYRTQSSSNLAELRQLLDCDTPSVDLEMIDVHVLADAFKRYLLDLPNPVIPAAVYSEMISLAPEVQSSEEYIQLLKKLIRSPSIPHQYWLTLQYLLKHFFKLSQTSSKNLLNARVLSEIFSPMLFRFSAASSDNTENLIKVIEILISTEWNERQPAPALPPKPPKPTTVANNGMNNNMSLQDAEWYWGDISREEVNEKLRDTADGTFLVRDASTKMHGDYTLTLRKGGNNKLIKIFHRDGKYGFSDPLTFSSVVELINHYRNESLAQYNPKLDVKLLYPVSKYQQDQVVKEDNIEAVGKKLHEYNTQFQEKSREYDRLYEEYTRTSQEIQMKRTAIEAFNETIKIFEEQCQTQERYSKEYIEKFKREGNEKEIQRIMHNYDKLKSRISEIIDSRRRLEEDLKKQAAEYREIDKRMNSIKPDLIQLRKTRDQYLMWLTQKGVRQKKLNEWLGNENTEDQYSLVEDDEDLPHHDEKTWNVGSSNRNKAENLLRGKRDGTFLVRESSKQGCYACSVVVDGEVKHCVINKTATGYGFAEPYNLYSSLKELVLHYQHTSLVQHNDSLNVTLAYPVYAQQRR
Description: In a PI3Kα enzyme assay, a product (manufactured by Carna Biosciences, Inc.) obtained by biotinylating a human PI3Kα protein produced by using a baculovirus expression system was used. In addition, in the detection of enzyme activity, ADP-GLO KINASE ASSAY (trade name, manufactured by PROMEGA Corporation) was used.
10 μL of a reaction liquid (4.5 nmol/L PI3Kα, 40 mmol/L Tris-HCl, 20 mmol/L MgCl2, 0.1% BSA, pH 7.5) including the human PI3Kα protein and a test compound having a predetermined concentration was allowed to stand at room temperature for 15 minutes. Then, 5 μL of a mixture liquid of L-α-phosphatidylinositol 4,5-diphosphate (PIP2) (manufactured by Sigma-Aldrich Co. LLC.) and ATP (manufactured by Sigma-Aldrich Co. LLC.), which are substrates, was added thereto such that final concentrations thereof became 50 μmol/L and 100 μmol/L, respectively, and an enzyme reaction was performed by allowing to stand at 25° C. for 60 minutes.
After the reaction, the enzyme reaction was stopped by adding 15 μL of an ADP-GLO REAGENT (trade name, manufactured by PROMEGA Corporation) thereto and allowing to stand at room temperature for 60 minutes. Then, 30 μL of a KINASE DETECTION REAGENT (trade name, manufactured by PROMEGA Corporation) was added thereto, followed by allowing to stand at room temperature for 40 minutes, and ADP produced by the enzyme reaction was quantified by emission intensity.
ENVISION (trade name, manufactured by Perkin Elmer Inc.) was used for the measurement of the emission intensity.
as §1

IC50 [1] [nM]	IC50 (human PI3Kα protein) [nM]	Compound
< 1000	1000 to 10000	CC(C)c1cnnc(Nc2ccc3ncc(-n4cnc(CO)c4)cc3n2)c1 [Example 0497, (1-(6-((5-isopropylpyridazin-3-yl)amino)-1,5-naphthyridin-3-yl)-1H-imidazol-4-yl)methanol]
< 1000	< 1000	CC(C)c1cnnc(Nc2ccc3ncc(-c4cnc(N5CCN(C)CC5)s4)cc3n2)c1 [Example 0498, N-(5-isopropylpyridazin-3-yl)-7-(2-(4-methylpiperazin-1-yl)thiazol-5-yl)-1,5-naphthyridine-2-amine]
< 1000	< 1000	CCOc1cnnc(Nc2ccc3ncc(-c4cnn(C)c4)cc3n2)c1 [Example 0499]
1000 to 10000	1000 to 10000	CC(C)Oc1cnnc(Nc2ccc3ncc(-c4cnn(CCCN5CCOCC5)c4)cc3n2)c1 [Example 0501]
< 1000	< 1000	CC(C)c1cnnc(Nc2ccc3ncc(-c4cnc(N5CCNCC5)s4)cc3n2)c1 [Example 0502]
< 1000	< 1000	CC(C)c1cnnc(Nc2ccc3ncc(-n4cnc(CCN(C)C)c4)cc3n2)c1 [Example 0503, 7-(4-(2-(Dimethylamino)ethyl)-1H-imidazol-1-yl)-N-(5-isopropylpyridazin-3-yl)-1,5-naphthyridine-2-amine]
< 1000	< 1000	CC(=O)NCCc1cn(-c2cnc3ccc(Nc4cc(C(C)C)cnn4)nc3c2)cn1 [Example 0504, N-(2-(1-(6-((5-isopropylpyridazin-3-yl)amino)-1,5-naphthyridin-3-yl)-1H-imidazol-4-yl)ethyl)acetamide]
< 1000	1000 to 10000	CC(C)c1cnnc(Nc2ccc3ncc(-n4cnc(CCNC(=O)OC(C)(C)C)c4)cc3n2)c1 [Example 0505, tert-Butyl (2-(1-(6-((5-isopropylpyridazin-3-yl)amino)-1,5-naphthyridin-3-yl)-1H-imidazol-4-yl)ethyl)carbamate]
< 1000	1000 to 10000	CC(C)c1cnnc(Nc2ccc3ncc(-n4cnc(CCN)c4)cc3n2)c1 [Example 0506, Hydrochloric acid salt of 7-(4-(2-aminoethyl)-1H-imidazol-1-yl)-N-(5-isopropylpyridazin-3-yl)-1,5-naphthyridine-2-amine]
< 1000	< 1000	CC(C)c1cnnc(Nc2ccc3ncc(-c4cnc(OC5CCN(C)CC5)s4)cc3n2)c1 [Example 0507]
< 1000	< 1000	CC(C)c1cnnc(Nc2ccc3ncc(-n4cnc(CC#N)c4)cc3n2)c1 [Example 0508, 2-(1-(6-((5-Isopropylpyridazin-3-yl)amino)-1,5-naphthyridin-3-yl)-1H-imidazol-4-yl)acetonitrile]
< 1000	1000 to 10000	CC(C)c1cnnc(Nc2ccc3ncc(-c4cncn4C)cc3n2)c1 [Example 0509, N-(5-isopropylpyridazin-3-yl)-7-(1-methyl-1H-imidazol-5-yl)-1,5-naphthyridine-2-amine]
< 1000	1000 to 10000	CC(C)c1cnnc(Nc2ccc3ncc(N4CCC(CO)CC4)cc3n2)c1 [Example 0511, (1-(6-((5-Isopropylpyridazin-3-yl)amino)-1,5-naphthyridin-3-yl)piperidin-4-yl)methanol]
< 1000	1000 to 10000	CC(C)c1cnnc(Nc2ccc3ncc(-n4cnc5ccccc54)cc3n2)c1 [Example 0512]
< 1000	1000 to 10000	CCc1nc(C)cn1-c1cnc2ccc(Nc3cc(C(C)C)cnn3)nc2c1 [Example 0514]
< 1000	< 1000	CN(C)c1cnnc(Nc2ccc3ncc(-c4cnn(C)c4)cc3n2)c1 [Example 0518]
< 1000	1000 to 10000	CC(C)c1cnnc(Nc2ccc3ncc(-c4cnn(CC5CCCCC5)c4)cc3n2)c1 [Example 0519, 7-(1-(Cyclohexylmethyl)-1H-pyrazol-4-yl)-N-(5-isopropylpyridazin-3-yl)-1,5-naphthyridine-2-amine]
< 1000	1000 to 10000	Cn1cc(-c2cnc3ccc(Nc4cc(N5CCCC5)cnn4)nc3c2)cn1 [Example 0520]
< 1000	< 1000	CC(C)c1cnnc(Nc2ccc3ncc(-c4cnn(C[C@H]5CC[C@H](O)CC5)c4)cc3n2)c1 [Example 0521]

IC50 [1] [nM]	IC50 (human PI3Kα protein) [nM]	Compound
< 1000	< 1000	CO[C@H]1CC[C@H](Cn2cc(-c3cnc4ccc(Nc5cc(C(C)C)cnn5)nc4c3)cn2)CC1 [Example 0522, N-(5-isopropylpyridazin-3-yl)-7-(1-(((1r,4r)-4-methoxycyclohexyl)methyl)-1H-pyrazol-4-yl)-1,5-naphthyridine-2-amine]
< 1000	< 1000	CCCN(CCC)c1cnnc(Nc2ccc3ncc(-c4cnn(C)c4)cc3n2)c1 [Example 0523]
< 1000	< 1000	CCN(CCO)c1cnnc(Nc2ccc3ncc(-c4cnn(C)c4)cc3n2)c1 [Example 0525]
< 1000	< 1000	Cn1cc(-c2cnc3ccc(Nc4cc(C(C)(C)C)cnn4)nc3c2)cn1 [Example 0526]
1000 to 10000	< 1000	Cc1cnnc(Nc2ccc3ncc(-c4cn(C)nc4-c4cccnc4)cc3n2)c1 [Example 0527]
< 1000	< 1000	CC(=O)N1CCC(Cn2cc(-c3cnc4ccc(Nc5cc(C(C)C)cnn5)nc4c3)cn2)CC1 [Example 0528, 1-(4-((4-(6-((5-Isopropylpyridazin-3-yl)amino)-1,5-naphthyridin-3-yl)-1H-pyrazol-1-yl)methyl)piperidin-1-yl)ethanone]
< 1000	< 1000	CC(C)c1cnnc(Nc2ccc3ncc(-c4cnn(CC5CCN(C(=O)N(C)C)CC5)c4)cc3n2)c1 [Example 0529]
< 1000	< 1000	CCN(CC)C(=O)N1CCC(Cn2cc(-c3cnc4ccc(Nc5cc(C(C)C)cnn5)nc4c3)cn2)CC1 [Example 0531]
< 1000	< 1000	CC(C)c1cnnc(Nc2ccc3ncc(-c4cnn(CC5CCN(C(=O)N6CCOCC6)CC5)c4)cc3n2)c1 [Example 0532]
< 1000	< 1000	CC(C)c1cnnc(Nc2ccc3ncc(-c4cnn(CC5CCN(C(=O)N6CCCCC6)CC5)c4)cc3n2)c1 [Example 0533]
< 1000	< 1000	CC(C)c1cnnc(Nc2ccc3ncc(-c4cnn(CC5CCN(C(=O)C6CC6)CC5)c4)cc3n2)c1 [Example 0534]
< 1000	< 1000	CC(C)CC(=O)N1CCC(Cn2cc(-c3cnc4ccc(Nc5cc(C(C)C)cnn5)nc4c3)cn2)CC1 [Example 0535]
< 1000	< 1000	CC(C)C(=O)N1CCC(Cn2cc(-c3cnc4ccc(Nc5cc(C(C)C)cnn5)nc4c3)cn2)CC1 [Example 0536]
< 1000	< 1000	COCC(=O)N1CCC(Cn2cc(-c3cnc4ccc(Nc5cc(C(C)C)cnn5)nc4c3)cn2)CC1 [Example 0537]
< 1000	< 1000	CC(C)c1cnnc(Nc2ccc3ncc(-c4cnn(CC5CCN(C(=O)C6CCCCC6)CC5)c4)cc3n2)c1 [Example 0538]
< 1000	< 1000	CC(C)c1cnnc(Nc2ccc3ncc(-c4cnn(CC5CCN(C(=O)N6CCCC6)CC5)c4)cc3n2)c1 [Example 0539]
1000 to 10000	< 1000	CC(=O)N1CCC(Nc2cnc3ccc(Nc4cc(C(C)C)cnn4)nc3c2)CC1 [Example 0540, 1-(4-((6-((5-Isopropylpyridazin-3-yl)amino)-1,5-naphthyridin-3-yl)amino)piperidin-1-yl)ethanone]
1000 to 10000	< 1000	CC(=O)N1CCCC(Nc2cnc3ccc(Nc4cc(C(C)C)cnn4)nc3c2)C1 (stereo not shown) [Example 0541]

Compound	IC50 [1] [nM]	IC50 (human PI3Kα protein) [nM]
CCN(CCO[Si](C)(C)C(C)(C)C)c1cnnc(Nc2ccc3ncc(-c4cnn(C)c4)cc3n2)c1 [Example 0524]	< 1000	10000 to 50000
